Like-named read-outs stand apart in the source and are kept apart here.
Assays:
Type in all cases: cell-based
[1] = test system: Klebsiella pneumoniae KN 4401; settings: Klebsiella KN 4401
Excerpt: (§1) In the indicator mutants, the synthesis of the respective siderophores, e.g. pyoverdin, pyochelin, enterobactin, aerobactin or yersiniabactin, or the biosynthesis of aromatic compounds, is blocked, or there is a lack of receptors for enterobactin, pyochelin or pyoverdin and for other important components for the bacterial transport of iron (e.g. the membrane proteins Cir, Fiu, FepA and TonB). Under conditions where there is a lack of iron, these mutants therefore cannot grow or can only grow to a very slight extent. In particular, the following indicator mutants were used: Pseudomonas aeruginosa PAO 6609, K 407, 690; E. coli AB 2847, Salmonella typhimurium enb-7, TA 270; Klebsiella pneumoniae KN 4401; Yersinia enterocolitica WAH; Proteus mirabilis 12 (wild); Proteus vulgaris 718 (wild) and Morganella morganii SBK3 (wild). […] The controls used were ferrioxamine E for the Pseudomonas strains, ferrioxamine G and enterobactin for the Salmonella strains, ferrichrome for the E. coli, Klebsiella and Y. enterocol. strains, and 3,4-dihydroxybenzylidene-2,4,6-trimethylaniline for Morganella morganii (see the above literature reference by R. Reissbrodt et al.).
(§2) The annotations + and (+) relate to non-specific promotion of growth.

[2] = test system: E. coli AB 2847; note: test concentration or dose not given here
Excerpt: as §1, §2

[3] = test system: Morganella morganii SBK3 (wild)
Excerpt: as §1, §2

[4] = test system: Pseudomonas aeruginosa PAO 6609
Excerpt: as §1, §2

[5] = test system: Proteus vulgaris 718 (wild); settings: Proteus vul. 718
Excerpt: as §1, §2

[6] = test system: Salmonella typhimurium TA 2700; note: test concentration or dose not given here
Excerpt: as §1, §2

[7] = test system: Pseudomonas aeruginosa K 407; settings: Pseudomonas aeruginosa K407
Excerpt: as §1, §2

[8] = test system: Salmonella typhimurium enb-7; note: test concentration or dose not given here
Excerpt: as §1, §2

[9] = test system: Pseudomonas aeruginosa 690; note: test concentration or dose not given here
Excerpt: as §1, §2

[10] = test system: Proteus mirabilis 12 (wild); settings: Proteus mir. 12
Excerpt: as §1, §2

SMILES	Growth areas of siderophore indicator strains (diameter) [1]	Growth areas of siderophore indicator strains (diameter) [2]	Growth areas of siderophore indicator strains (diameter) ([3]; M. morg. SBK 3)	Growth areas of siderophore indicator strains (diameter) [4]	Growth areas of siderophore indicator strains (diameter) [5]	Growth areas of siderophore indicator strains (diameter) [6]	Growth areas of siderophore indicator strains (diameter) [7]	Growth areas of siderophore indicator strains (diameter) [8]	Growth areas of siderophore indicator strains (diameter) [9]	Growth areas of siderophore indicator strains (diameter) [10]	Growth areas of siderophore indicator strains (diameter) [3]
COC(=O)Oc1ccc(C=Nc2cccc(C(=O)O)c2)cc1OC(=O)OC [Substance 1, 3-[3,4-di(Methoxycarbonyloxy)-benzylideneamino]-benzoic Acid]	0 mm	0 mm	35 mm	20 mm	35 mm	0 mm	16 mm	35 mm	23 mm	26 mm	
COC(=O)Oc1ccc(C=Nc2cc(C(=O)O)ccc2O)cc1OC(=O)OC [Substance 2, 3-[3 ,4-di(Methoxycarbonyloxy)-benzylideneamino]4-hydroxybenzoic Acid]	35 mm	0 mm	20 mm	17 mm	25 mm	0 mm	18 mm	30 mm	17 mm	16 mm	
COC(=O)Oc1ccc(C=Nc2cc(N=Cc3ccc(OC(=O)OC)c(OC(=O)OC)c3)cc(C(=O)O)c2)cc1OC(=O)OC [Substance 4, 3,5-Bis-[3,4-di(methoxycarbonyloxy)-benzylideneamino]-benzoic Acid]	33 mm	18 mm	27 mm	17 mm	24 mm	0 mm	18 mm	34 mm	18 mm	23 mm	
O=C(O)C(=NNC(=O)c1ccc(O)c(O)c1)c1ccccc1 [Substance 9, [(3,4-Dihydroxybenzoyl)-hydrazono]-phenylacetic Acid]	27 mm	0 mm				0 mm		0 mm	10 mm	9 mm	
CC(=O)Oc1cccc(C(=O)Nc2ccccc2C(=O)O)c1OC(C)=O [Substance 16, 2-(2,3-Diacetoxy-benzoylamino)-benzoic Acid]		24 mm		20 mm		10 mm	20 mm	25 mm	20 mm		
CC(=O)Oc1cccc(C(=O)Nc2ccc(C(=O)O)cc2)c1OC(C)=O [Substance 17, 4-(2,3-Diacetoxy-benzoylamino)benzoic Acid]		26 mm	12 mm	0 mm				0 mm			
O=C(NCCC[C@H](NC(=O)c1cccc(O)c1O)C(=O)O)c1cccc(O)c1O [Substance 18, L-2,5-bis-(2,3-Dihydroxybenzoylamino)-pentanoic Acid]		30 mm		20 mm		50 mm	17 mm	48 mm	18 mm		
C[C@H](NC(=O)c1cccc(O)c1O)C(=O)O [Substance 19, L-2-(2,3-Dihydroxybenzoylamino)-propionic Acid]		11 mm				17 mm	10 mm	29 mm	0 mm		
CC(=O)Oc1cccc(C(=O)N[C@@H](C)C(=O)O)c1OC(C)=O [Substance 20, L-2-(2,3-Diacetoxybenzoylamino)-propionic Acid]		18 mm				12 mm	10 mm	31 mm	0 mm		
O=C(NCC[C@H](NC(=O)c1cccc(O)c1O)C(=O)O)c1cccc(O)c1O [Substance 21, L-2,4-Bis-(2,3-dihydroxybenzoylamino)-butyric Acid]		33 mm		14 mm		40 mm	15 mm	36 mm	15 mm		
O=C(NCCCCC(NC(=O)c1cccc(O)c1O)C(=O)NC[C@H](NC(=O)c1cccc(O)c1O)C(=O)O)c1cccc(O)c1O (some centres unmarked) [Substance 22]		0 mm		48 mm		50 mm	40 mm	50 mm	50 mm		
CC(=O)Oc1cccc(C(=O)N[C@@H](CO)C(=O)O)c1OC(C)=O [Substance 23, L-2-[2,3-Diacetoxybenzoylamino)-3-hydroxypropionic Acid]		22 mm				20 mm		27 mm	14 mm		
O=C(NCCC[C@@H](NC(=O)c1cccc(O)c1O)C(=O)O)c1cccc(O)c1O [Substance 24, D-2,5-Bis-(2,3-dihydroxybenzoylamino)-pentanoic Acid]		40 mm		20 mm		40 mm	20 mm	50 mm	20 mm		
CC(=O)Oc1cccc(C(=O)NCCCC[C@H](NC(=O)c2cccc(OC(C)=O)c2OC(C)=O)C(=O)O)c1OC(C)=O [Substance 25, 1L-2,6-Bis-(2,3-diacetoxybenzoylamino)-hexanoic Acid]		30 mm		18 mm				28 mm			38 mm
CC(=O)Oc1cccc(C(=O)N2COC[C@H]2C(=O)O)c1OC(C)=O [Substance 26, (S)-3-(2,3-diacetoxybenzoyl)-oxazolidine-4-carboxylic Acid]		14 mm	10 mm	0 mm				32 mm			

Reference: patent publication US6380181B1, “Synthetic catechol derivatives, method for production and use thereof” (priority 1996, dated 2002)
